Source: paper PMC6947424, “New Targeted Gold Nanorods for the Treatment of Glioblastoma by Photodynamic Therapy” (Journal of Clinical Medicine, 2019)
Residues, ends and D or L forms follow the SMILES beside them. *: point of attachment. Pyropheophorbide(a) = C=Cc1c(C)c2cc3nc(c4c5[nH]c(cc6nc(cc1[nH]2)C(C)=C6CC)c(C)c5C(=O)C4)[C@@H](CCC(=O)*)[C@@H]3C; Hexanoyl(6-maleimido) = O=C1C=CC(=O)N1CCCCCC(=O)*

Experiments:
UV-vis absorption = type: physicochemical; conditions: ethanol, Soret band
Experimental: The setup and the protocol to evaluate the photophysical characterizations including the absorption, fluorescence, and singlet oxygen emission spectra in addition to the fluorescence and singlet oxygen lifetimes have been previously described by our team. The absorption spectra were recorded on a UV-3600 UV–vis double beam spectrophotometer (Shimadzu, Marne La Vallée, France) in the wavelength range of 200-800 nm. The measurements were performed on the molecules dispersed in ethanol in quartz cuvettes with an optical path of 10 mm. The fluorescence spectra were recorded on a Horiba Jobin Yvon Fluorolog-3 (FL3-222) spectrofluorimeter equipped with a 450W xenon lamp, a thermostated cell compartment (25 °C), a R928 (Hamamatsu, Massy, France) UV–vis photomultiplier and a liquid nitrogen cooled InGaAs infrared detector (DSS-16A020L Electro-Optical System Inc., Phoenixville, PA, USA). The excitation spectrometer used is a SPEX double grating monochromator (1200 grooves per mm blazed at 330 nm). The fluorescence was measured using the UV–vis detector through a SPEX double grating monochromator (600 grooves per mm blazed at 500 nm). The singlet oxygen production was measured using the IR detector through a SPEX double grating monochromator (600 grooves per mm blazed at 1 μm).
The photophysical properties at the different synthetic stages of the hybrid AuNRs@PEG-MI-K(Pyro)DKPPR-OH, including the peptide derivatives as intermediates, were studied and compared to that of free Pyro. These properties include the UV-vis absorption, the florescence emission (quantum yield (Φf) and lifetime (τf)) and the ^1O2 production (quantum yield (ΦΔ) and lifetime (τΔ)). To determine these properties, the optical density (OD) of the Soret band of the Pyro component (412 nm) was adjusted at about 0.2. Controls, such as TPP dissolved in toluene, as a standard for fluorescence emission, and RB dissolved in ethanol, as a standard for ^1O2 production, were used. Ethanol was chosen to dissolve the studied molecules since it is a convenient solvent for the detection of fluorescence and ^1O2 emission. […]

U87 glioblastoma cells = test: MTT phototoxicity after light exposure, U87 cells; type: cell-based; conditions: 24 h; for decrease of cell viability: then 652 nm, 10 J/cm2 (4.54 mW·cm−2), MTT after further 24 h, triplicate; for PDT efficacy / photodynamic activity (in words): 10, 20 and 30 µM PS, 652 nm, 10 J/cm2, MTT
Experimental: For in vitro experiments, U87 glioblastoma cells (ATCC® HTB-14™) were cultivated in Dulbecco’s modified eagle’s medium (DMEM) supplemented with sodium pyruvate 1.5 mM, MEM AA, MEM NE AA, MEM vitamins, L-Ser 14 μg·mL^−1, L-asp 25 μg·mL^−1, L-Glu 2.5 mM, 100 U·mL^−1 penicillin, 100 μg·mL^−1 streptomycin, and 20% FCS. They were cultured under standard cell culture conditions while incubated in 5% CO2/80% humidified air at 37 °C.
Cell survival of U87 after incubation with the hybrid AuNRs, the PS-peptide conjugate or the free PS in the dark (cytotoxicity) or after light exposure (phototoxicity) was investigated using an MTT assay as previously described. Briefly, U87 cells were plated into 48-well plates at an initial cell density of 2 × 10^4 cells/cm^2 in culture medium, incubated at 37 °C during 48 h. Old culture media were discarded and the wells were filled with 250 µL of culture medium containing different concentrations of the tested molecules (AuNRs@PEG-MI-K(Pyro)DKPPR-OH, MI-K(Pyro)DKPPR-OH and Pyro) at a final PS concentration of 10, 20, and 30 μM. After 24 h, the wells were washed three times with HBSS and filled with culture medium. To evaluate the cytotoxicity of the tested molecules towards the U87 cells, one plate was kept incubated in the dark. However, the phototoxicity induced by those molecules was assessed by exposing the cells to light at a fluence of 10 J·cm^−2 (fluence rate 4.54 mW·cm^−2, duration: 36 min 42 s) using a 652 nm diode laser system (Ceralas, Biolytec, Jena, Germany). The cells were further incubated for 24 h. The cell survival was measured by MTT assay where the cells were incubated for 3 h at 37 °C with 0.4 mg·mL^−1. After that, the excess of MTT was discarded and the formazan crystals that developed in the living cells were dissolved by DMSO. The absorption of formazan was measured at 540 nm with a background subtraction at 630 nm using a Multiskan Ascent plate reader (Thermo Scientific, Vantaa, Finland). Experiments were carried out in triplicates.
All in vitro experiments were realized in triplicate and expressed as a percentage of variation from control cells. The results were given as mean ± standard deviation (SD). Differences among groups were evaluated using variance analysis (Anova) followed by Bonferroni test (GraphPad Prism 6.0 software, San Diego, CA, USA). A value of p < 0.05 was considered as statistically significant. * Versus control cells.

| SMILES | λmax (UV-vis absorption) [nm] | decrease of cell viability (U87 glioblastoma cells; 10 µM PS) [%] | decrease of cell viability (U87 glioblastoma cells; 20 µM PS) [%] | decrease of cell viability (U87 glioblastoma cells; 30 µM PS) [%] | PDT efficacy / photodynamic activity (in words) (U87 glioblastoma cells) |
| --- | --- | --- | --- | --- | --- |
| C=Cc1c(C)c2cc3nc(c4c5[nH]c(cc6nc(cc1[nH]2)C(C)=C6CC)c(C)c5C(=O)C4)[C@@H](CCC(=O)NCCCC[C@H](NC(=O)CCCCCN1C(=O)C=CC1=O)C(=O)N[C@@H](CC(=O)O)C(=O)N[C@@H](CCCCN)C(=O)N1CCC[C@H]1C(=O)N1CCC[C@H]1C(=O)N[C@@H](CCCNC(=N)N)C(=O)O)[C@@H]3C [MI-K(Pyro)DKPPR-OH] ({Hexanoyl(6-maleimido)}-K(Pyropheophorbide(a))DKPPR-OH) | 412 | 25 | 46 | 58 | lower photodynamic activity |
| C=Cc1c(C)c2cc3nc(c4c5[nH]c(cc6nc(cc1[nH]2)C(C)=C6CC)c(C)c5C(=O)C4)[C@@H](CCC(=O)O)[C@@H]3C [Pyro, pyropheophorbide-a, reference compound] | 412 | – | – | – | low PDT efficacy |
